The results in this text go back to paper PMC11521937, “Expression and characterization of pantothenate energy‐coupling factor transporters as an anti‐infective drug target” (Protein Science : A Publication of the Protein Society, 2024).

One series relates to S. pneumoniae DSM‐20566. As to the kind of experiment: Galleria mellonella infection model with S. pneumoniae. The series is classed as in vivo. To be noted: S. pneumoniae OD600 1.5, after 3 days. The protocol: Next, we examined the antibacterial effect of the ECF inhibitors under in vivo conditions by using G. mellonella larvae. This model was adopted based on the work of Alhayek et al. ([2022]) and serves to assess the efficacy of ECF inhibitors against S. pneumoniae induced infection. Larvae were injected with the overnight culture of S. pneumoniae DSM‐20566, incubated for 3 days at 37°C and 5% CO2 without shaking, and survival rates were monitored daily for 3 days (Figure 4).
G. mellonella larvae were used as an in vivo infection model to test selected ECF inhibitors, following the methodology established by Alhayek et al. ([2022]). S. pneumoniae DSM‐20566 was cultured in Todd–Hewitt medium with 0.1% choline at 37°C with 5% CO2 until an OD600 of 1.5 or higher was reached. Larvae were infected by injecting 10 μL of the culture into the left proleg and incubated at 37°C, 5% CO2 for 72–96 h. Survival was monitored daily. Control groups received either PBS or no injection. […]. The larvae used in this study were purchased from VALOMOLIA Company (Strasbourg, France).

In another series the test system is HepG2 cells. Briefly: In vitro MTT cytotoxicity assay, HepG2. The series is classed as cell-based, human. To be noted: 48 h. The procedure:
(§1) In vitro cytotoxicity evaluation […]
(§2) with minor modifications, which will be detailed below.
(§3) To obtain information regarding the toxicity of our compounds, their impact on the viability of human cells was investigated. HepG2 and A549 cells (2 × 10^4 cells per well) were seeded in 96-well, flat-bottomed culture plates in 100 µL culture medium (DMEM containing 10% fetal calve serum, 1% penicillin-streptomycin). Twenty-four hours after seeding the cells, medium was removed and replaced by medium containing test compounds in a final DMSO concentration of 1%. Compounds were tested in duplicates at a single concentration in 1% DMSO/medium. Epirubicin and doxorubicin were used as positive controls in serial dilutions starting from 10 µM, and rifampicin was used as a negative control (at 100 µM). The living cell mass was determined 48 h after treatment with compounds by adding 0.1 volumes of 3-(4,5-dimethylthiazol-2-yl)-2,5-diphenyltetrazolium bromide (MTT) solution (5 mg/mL sterile PBS) (Sigma, St. Louis, MO) to the wells. After incubating the cells for 30 min at 37 °C (atmosphere containing 5% CO2), medium was removed and MTT crystals were dissolved in 75 µL of a solution containing 10% SDS and 0.5% acetic acid in DMSO. The optical density (OD) of the samples was determined photometrically at 570 nm in a PHERAstar Omega plate reader (BMG labtech, Ortenberg, Germany). To obtain percent viability for each sample, their ODs were related to those of DMSO controls. At least two independent measurements were performed for each compound. The calculation of IC50 was performed using the nonlinear regression function of GraphPad Prism 10 (GraphPad Software, San Diego, CA, USA). […]

The next series deals with A549 cells. As to the kind of experiment: In vitro MTT cytotoxicity assay, A549. Format: cell-based, human. To be noted: 48 h, 100 µM. The procedure: as §1, §2, §3

SMILES strings stand for the structures.

As for `CC(C)(C)OC(=O)Nc1ccc(OCc2cccc3ccccc23)cc1C(=O)O` [Compound 3], the larval survival in the series with S. pneumoniae DSM‐20566 (compound at 10 μM) is listed as 60%; in the series with S. pneumoniae DSM‐20566 (compound at 50 μM), 50%.

Turning to `O=C(O)c1cccc(NCc2ccc(-c3cccc(Cl)c3)o2)c1` [Compound 5], the “Percent (%) cell viability at 100 μM, HepG2 cells” value in the series with HepG2 cells is “non‐toxic”. Still for that read-out and setting: with `O=C(O)c1cccc(NCc2ccc(-c3ccccc3Cl)o2)c1` [Compound 6] the entry was “non‐toxic”. Regarding `O=C(O)c1cc(OCc2ccc(Br)c3ccccc23)ccc1O` [Compound 2], the “Percent (%) cell viability at 100 μM, A549 cells” value in the series with A549 cells is given as 124 ± 15%. Besides, the larval survival entry in the series with S. pneumoniae DSM‐20566 (compound at 10 μM) and with S. pneumoniae DSM‐20566 (compound at 50 μM) was “up to 70%” throughout. For `O=C(O)c1cccc(NCc2ccc(-c3ccc(Cl)cc3)o2)c1` [Compound 4], the larval survival is 40% in the series with S. pneumoniae DSM‐20566 (compound at 10 μM) and 60% with S. pneumoniae DSM‐20566 (compound at 50 μM).

In the case of `O=C(O)c1cc(OCc2cccc3ccccc23)ccc1O` [Compound 1], the “Percent (%) cell viability at 100 μM, A549 cells” value in the series with A549 cells came out at 111 ± 6%.
